Test results reported in US20240024251A1, “POLYSACCHARIDE ENCAPSULATED OXYGEN NANOBUBBLES” (THE BOARD OF TRUSTEES OF THE UNIVERSITY OF ILLINOIS, priority 2020, published 2024).

System: R-28 and ARPE-19 cell line
Conditions: rat (R-28), human (ARPE-19), 48 h
Procedure: The biosafety of DONBs and excipients used in the formulation was evaluated on retinal precursor cells R-28 and retinal pigment epithelial cells (ARPE-19). The suspensions of the following cell line (100 μL, −60,000 cells/mL) were seeded into each well of a 96-well plate and cultured overnight. The cells were cultured for 24 h in the dark.
Excipient toxicity studies on ARPE-19 and R28 cell line. Cell viability was conducted with ARPE-19 and R28 cell lines, in response to treatment with nanobubble excipients, using the [3-(4, 5-dimethylthiazol-2-yl)-2, 5-diphenyl tetrazolium bromide](MTT) assay. The MTT reagent (Cat no. M6494, Thermo Fisher Scientific) was prepared by dissolving 5 mg of MTT per 1 ml of phosphate-buffered saline (Cat no. 21-040-CV, Corning), filter sterilized using a 0.22 μm filter, and stored in dark at 4° C. Yellow MTT is reduced to purple formazan in the mitochondria of living cells. Cells were grown to 80-90% confluence in a T-25 flask, dissociated using trypsin, and seeded into a 96-well plate at a density of 10000 cells per well. […] The absorbance was measured at 590 nm with a reference filter of 620 nm.

OC[C@H]1O[C@H](O[C@H]2O[C@H](CO)[C@@H](O)[C@H](O)[C@H]2O)[C@H](O)[C@@H](O)[C@@H]1O [Trehalose, D-(+)-Trehalose dihydrate]
excipient concentration producing some toxic effect on cell viability: 0.6 to 0.7 mg
